Consider 14 compounds from patent US10364263B2, “Cyclic phosphates and cyclic phosphoramidates for the treatment of neurologic disorders” (Retrophin, Inc., priority 2015, dated 2019).

The structures appear in SMILES notation. Like-named read-outs stand apart in the source and are kept apart here. Bounds are passed on as bounds.

The test system of data set [1] is PANK2 silenced human neuroblastoma IMR32 cells (PANK2−/−). As to the kind of experiment: Coenzyme A assay in PANK2 silenced cells (LC-MS quantification of free CoA). As to conditions: compound added twice (24 h + 24 h), relative to 0.1% DMSO controls. The format is cell-based. A digest of the protocol:
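PANK2 shRNA-silenced IMR32 neuroblastoma cells were treated with compound (0.1% DMSO) for 24 h, then re-dosed with fresh compound for a further 24 h at 37 °C. TFA extracts of 1×10^6 cells were assayed for free CoA by LC-MS/MS (MRM 768.1→261.6/136.1). Results are given as fold change versus DMSO controls.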

A short description of data set [2]: Stability in human hepatocytes. As to conditions: 5 μM, 1 million cells/ml, 37° C., human hepatocytes. The data set is classed as in vitro ADME. As for the experimental part:
Stability in hepatocytes for select compounds disclosed in the application was evaluated in two species (mouse and human) according to the following procedure. Compounds and positive control samples were dissolved in 100% DMSO at 5 mM. Cryopreserved hepatocytes were thawed and resuspended in Hepatocyte Basal Medium (HBM-Lonza CC-3199) supplemented with CC-4182 (complete hepatocyte culture medium). Test compounds were diluted into cell suspension (1 million cells/ml) from the stock solutions to have a test compound concentration of 5 μM (0.1% DMSO). Incubation was performed in 24-well plates, at 37° C. in a DUBNOFF water bath, under low shaking. Each compound was tested at 6 time points, in duplicates (0, 15, 30, 60, 120 and 240 min). At each time point, an aliquot of 120 μl was taken and transferred to a 96-well deep plate. The reaction was stopped with the addition of one volume of 100% acetonitrile plus 0.1% formic acid and the appropriate internal standard. Then samples were centrifuged at 1100×g for 30 min at +4° C. and supernatants were transferred to a new 96-deepwell plate. Samples were evaporated under N2 and reconstituted in H2O/ACN 0.1% Formic Acid (98:2). Analysis was performed without a calibration curve (Acquity UPLC-Waters; Sciex API4000). Time 0 was obtained adding acetonitrile before addition of the test compound. […] The half-life (t1/2) expressed in hours is derived using Equation 1 as shown in Example 64.

Data set [3] can be described thus: Stability in mouse plasma. The format is in vitro ADME. The conditions noted are these: mouse, plasma; for t1/2, Mouse Plasma, Diastereoisomer B: 3 µM. As for the experimental part:
Compounds and positive control samples were dissolved in 100% DMSO at 3 mM. To investigate the stability of the test compounds in plasma, samples were made by diluting test compounds into plasma from the stock solutions to obtain a test compound concentration of 3 μM (0.1% DMSO). Before addition of a test compound, 990 μl of plasma were preincubated at 37° C. for 5 min in eppendorf. After addition of a test compound, 70 μl for each time point were transferred to a 96-deepwell plate, previously warmed at 37° C. in a DUBNOFF water bath. Each compound was tested at five time points, in duplicate (10, 20, 30, 40 and 60 min). At each time point, an aliquot of 50 μl was taken and transferred to a new 96-deepwell plate, and the reaction was stopped with 200 μl of 100% acetonitrile containing 0.1% formic acid and the appropriate internal standard. Then samples were centrifuged at 1100×g for 30 min at +4° C. and supernatants were transferred to a new 96-deepwell plate. Samples were evaporated under N2 and reconstituted in H2O/ACN 0.1% Formic Acid (98:2). Analysis was performed without a calibration curve (Acquity UPLC-Waters; SciexAPI4000). Time 0 was obtained by adding acetonitrile before addition of the test compound.

The nature of data set [4]: Stability in human plasma. The conditions noted are these: human, plasma, 37° C. The format is in vitro ADME. A digest of the protocol:
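Test compound at 3 μM (0.1% DMSO) was incubated in mouse or human plasma at 37 °C and sampled in duplicate at 0, 10, 20, 30, 40 and 60 min. Reactions were stopped with acetonitrile/formic acid containing internal standard. Remaining parent was measured by UPLC-MS/MS without a calibration curve.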

Where [5] appears, read: Diastereoisomer A (upfield shift in 31P NMR), read-out: t1/2, Human Plasma, Diastereoisomer A (converted).
The mark [6] stands for this setting: Diastereoisomer B, read-out: t1/2, Human Plasma, Diastereoisomer B (converted).

Take `COC(=O)CCNC(=O)[C@@H]1OP(=O)(Oc2ccc(F)cc2)OCC1(C)C` (stereo partly drawn) [2-118, methyl 3-((4R)-2-(4-fluorophenoxy)-5,5-dimethyl-2-oxido-1,3,2-dioxaphosphinane-4-carboxamido)propanoate]: in data set [1], the “PANK2−/− CoA (Fold Increase): fold increase in Coenzyme A (CoA) levels relative to controls” value stood at 1.38 Fold Increase. Further, the half-life at 5 µM was 33 min in data set [2] (Diastereoisomer A (upfield shift in 31P NMR), read-out: t1/2, Human Hepatocytes, Diastereoisomer A (converted)) and 36 min in data set [2] (Diastereoisomer B, read-out: t1/2, Human Hepatocytes, Diastereoisomer B (converted)).
On to `COC(=O)CCNC(=O)[C@@H]1OP(=O)(N[C@@H](Cc2cccnc2)C(=O)OCc2ccccc2)OCC1(C)C` (stereo partly drawn) [compound 30, (2S)-benzyl 2-(((4R)-4-((3-methoxy-3-oxopropyl)carbamoyl)-5,5-dimethyl-2-oxido-1,3,2-dioxaphosphinan-2-yl)amino)-3-(pyridin-3-yl)propanoate], for which the “PANK2−/− CoA (Fold Increase): fold increase in Coenzyme A (CoA) levels relative to controls” value in data set [1] is 0.93 Fold Increase. Further, the half-life at 3 µM is less than 9.6 min in data set [3], 49.8 min in data set [4] (setting [5]) and greater than 60 min in data set [4] (setting [6]). Besides, the “t1/2, Mouse Plasma, Diastereoisomer B” value in data set [3] is less than 9.6 min.
On the same counts, the results for `COC(=O)CCNC(=O)[C@@H]1OP(=O)(OCOC(=O)[C@H](CC(C)C)NC(C)=O)OCC1(C)C` (stereo partly drawn) [Compound No. 73, (((4R)-4-((3-methoxy-3-oxopropyl)carbamoyl)-5,5-dimethyl-2-oxido-1,3,2-dioxaphosphinan-2-yl)oxy)methyl acetyl-L-leucinate] are 6.92 Fold Increase, less than 9.6 min, less than 13.8 min, less than 9.6 min and less than 9.6 min.
As to `COC(=O)CCNC(=O)[C@@H]1OP(=O)(N[C@H](C)C(=O)OCc2cccnc2)OCC1(C)C` (stereo partly drawn) [compound 28, methyl 3-((4R)-5,5-dimethyl-2-oxido-2-(((R)-1-oxo-1-(pyridin-3-ylmethoxy)propan-2-yl)amino)-1,3,2-dioxaphosphinane-4-carboxamido)propanoate], in data set [1], the “PANK2−/− CoA (Fold Increase): fold increase in Coenzyme A (CoA) levels relative to controls” value is on record as 0.87 Fold Increase. Also, the half-life at 3 µM in data set [3] is less than 9.6 min; in data set [4] (setting [5]), greater than 60 min; in data set [4] (setting [6]) it was 39 min. Besides, the “t1/2, Mouse Plasma, Diastereoisomer B” value in data set [3] is less than 9.6 min.
As for `COC(=O)CCNC(=O)[C@@H]1OP(=O)(N[C@H](C)C(=O)OCc2cnccn2)OCC1(C)C` (stereo in doubt) [compound 42, methyl 3-((2S,4R)-5,5-dimethyl-2-oxido-2-(((R)-1-oxo-1-(pyrazin-2-ylmethoxy)propan-2-yl)amino)-1,3,2-dioxaphosphinane-4-carboxamido)propanoate], the “PANK2−/− CoA (Fold Increase): fold increase in Coenzyme A (CoA) levels relative to controls” value in data set [1] came out at 2.42 Fold Increase. Besides, the half-life at 3 µM is less than 9.6 min in data set [3] and greater than 60 min in data set [4] (setting [5]).
For the compound `COC(=O)CCNC(=O)[C@@H]1OP(=O)(OCOC(=O)CN2CCN(C(C)=O)CC2)OCC1(C)C` (stereo partly drawn) [compound 80, methyl 3-((4R)-2-((2-(4-acetylpiperazin-1-yl)acetoxy)methoxy)-5,5-dimethyl-2-oxido-1,3,2-dioxaphosphinane-4-carboxamido)propanoate], the “PANK2−/− CoA (Fold Increase): fold increase in Coenzyme A (CoA) levels relative to controls” value in data set [1] amounted to 1.48 Fold Increase. In addition, the half-life at 3 µM is less than 9.6 min in data set [3] and 40.2 min in data set [4] (setting [5]).
On to `COC(=O)CCNC(=O)[C@@H]1OP(=O)(OCOC(=O)OC(C)(C)C)OCC1(C)C` (stereo partly drawn) [compound 88, methyl 3-((4R)-2-(((tert-butoxycarbonyl)oxy)methoxy)-5,5-dimethyl-2-oxido-1,3,2-dioxaphosphinane-4-carboxamido)propanoate], for which the “PANK2−/− CoA (Fold Increase): fold increase in Coenzyme A (CoA) levels relative to controls” value in data set [1] was determined as 2.66 Fold Increase. Moreover, the half-life at 3 µM in data set [3] is less than 9.6 min; in data set [4] (setting [5]), 42.6 min; in data set [4] (setting [6]) it was 21.6 min. Further, the “t1/2, Mouse Plasma, Diastereoisomer B” value in data set [3] is less than 9.6 min.
Turning to `CC(C)(C)OC(=O)CCNC(=O)[C@@H]1OP(=O)(OCOC(=O)C(C)(C)C)OCC1(C)C` (stereo partly drawn) [Compound No. 75, (((4R)-4-((3-(tert-butoxy)-3-oxopropyl)carbamoyl)-5,5-dimethyl-2-oxido-1,3,2-dioxaphosphinan-2-yl)oxy)methyl pivalate], the “PANK2−/− CoA (Fold Increase): fold increase in Coenzyme A (CoA) levels relative to controls” value in data set [1] is given as 1.52 Fold Increase. Further, the half-life at 3 µM in data set [3] is less than 9.6 min; in data set [4] (setting [5]) it was greater than 60 min; in data set [4] (setting [6]), less than 9.6 min. Moreover, in data set [3], the “t1/2, Mouse Plasma, Diastereoisomer B” value is less than 9.6 min.
For the compound `COC(=O)CCNC(=O)[C@@H]1OP(=O)(N[C@@H](C)C(=O)OCCN2CCOCC2)OCC1(C)C` (stereo partly drawn) [compound 27, methyl 3-((4R)-5,5-dimethyl-2-(((S)-1-(2-morpholinoethoxy)-1-oxopropan-2-yl)amino)-2-oxido-1,3,2-dioxaphosphinane-4-carboxamido)propanoate], in data set [1], the “PANK2−/− CoA (Fold Increase): fold increase in Coenzyme A (CoA) levels relative to controls” value worked out at 1.49 Fold Increase. In addition, the half-life at 3 µM in data set [3] is less than 9.6 min; in data set [4] (setting [5]) it was greater than 60 min.
Turning to `C[C@H](NP1(=O)OCC(C)(C)[C@H](C(=O)NCCC(=O)OCc2cnccn2)O1)C(=O)OCCc1ccccc1` (stereo partly drawn) [compound 39, phenethyl ((4R)-5,5-dimethyl-2-oxido-4-((3-oxo-3-(pyrazin-2-ylmethoxy)propyl)carbamoyl)-1,3,2-dioxaphosphinan-2-yl)-L-alaninate], in data set [1], the “PANK2−/− CoA (Fold Increase): fold increase in Coenzyme A (CoA) levels relative to controls” value is given as 2.18 Fold Increase. For the same compound, the half-life at 3 µM in data set [3] is less than 9.6 min; in data set [4] (setting [5]) it was greater than 60 min; in data set [4] (setting [6]), greater than 60 min. Further, the “t1/2, Mouse Plasma, Diastereoisomer B” value in data set [3] is less than 9.6 min.
In the case of `CC(C)(C)C(=O)OCO[P@@]1(=O)OCC(C)(C)[C@H](C(=O)NCCC(=O)OC2CCN(Cc3ccccc3)C2)O1` (stereo partly drawn) [Compound No. 93, (((2S,4R)-4-((3-((1-benzylpyrrolidin-3-yl)oxy)-3-oxopropyl)carbamoyl)-5,5-dimethyl-2-oxido-1,3,2-dioxaphosphinan-2-yl)oxy)methyl pivalate], in data set [1], the “PANK2−/− CoA (Fold Increase): fold increase in Coenzyme A (CoA) levels relative to controls” value worked out at 206.8 Fold Increase. Besides, the half-life at 3 µM is less than 9.6 min in data set [3] and greater than 60 min in data set [4] (setting [5]).
On the same counts, the results for `CCOCCCOC(=O)CCNC(=O)[C@@H]1O[P@@](=O)(OCOC(=O)C(C)(C)C)OCC1(C)C` (single isomer, unassigned) [Compound No. 96] are 29.43 Fold Increase, less than 9.6 min and 16.8 min.
Take `Cc1cc(COC(=O)CCNC(=O)[C@@H]2OP(=O)(OCOC(=O)C(C)(C)C)OCC2(C)C)no1` (single isomer, unassigned) [Compound No. 74]: in data set [1], the “PANK2−/− CoA (Fold Increase): fold increase in Coenzyme A (CoA) levels relative to controls” value is 176 Fold Increase. The half-life at 3 µM in data set [3] is less than 9.6 min; in data set [4] (setting [5]), 46.8 min; in data set [4] (setting [6]) it was less than 9.6 min. Besides, the “t1/2, Mouse Plasma, Diastereoisomer B” value in data set [3] was less than 9.6 min.
Turning to `COC(=O)CCNC(=O)[C@@H]1OP(=O)(OCOC(=O)c2ccncc2)OCC1(C)C` (stereo partly drawn) [Compound No. 72, (((4R)-4-((3-methoxy-3-oxopropyl)carbamoyl)-5,5-dimethyl-2-oxido-1,3,2-dioxaphosphinan-2-yl)oxy)methyl isonicotinate], the “PANK2−/− CoA (Fold Increase): fold increase in Coenzyme A (CoA) levels relative to controls” value in data set [1] was found to be 34.64 Fold Increase. Also, the half-life at 3 µM in data set [3], in data set [4] (setting [5]) and in data set [4] (setting [6]) was less than 9.6 min each time. The “t1/2, Mouse Plasma, Diastereoisomer B” value in data set [3] was less than 9.6 min.
